Data as given in US12458021B2, “Microbiocidal derivatives” (SYNGENTA CROP PROTECTION AG, priority 2019, dated 2025).

Assays:
[1] = tested on: Magnaporthe grisea (Pyricularia oryzae); assay: whole plant or invertebrate; format: in vivo; settings: foliar, read-out: control of Magnaporthe grisea (percent disease control compared to untreated)
[2] = tested on: Monographella nivalis (Microdochium nivale); assay: Monographella nivalis (Microdochium nivale) / liquid culture (foot rot cereals); format: cell-based; settings: PDB potato dextrose broth, 24° C., 4-5 days after application, read-out: control of Monographella nivalis (inhibition of growth, photometric)
Experimental: Example B7: Monographella nivalis (Microdochium nivale)/Liquid Culture (Foot Rot Cereals) Conidia of the fungus from cryogenic storage are directly mixed into nutrient broth (PDB potato dextrose broth). After placing a (DMSO) solution of test compound into a microtiter plate (96-well format), the nutrient broth containing the fungal spores is added. The test plates are incubated at 24° C. and the inhibition of growth is determined photometrically 4-5 days after application. […] […]-190.

[3] = tested on: Glomerella lagenarium (Colletotrichum lagenarium); assay: Glomerella lagenarium (Colletotrichum lagenarium) / liquid culture (anthracnose); format: cell-based; settings: Colletotrichum orbiculare, PDB potato dextrose broth, 24° C., 3-4 days after application, read-out: control of Glomerella lagenarium (inhibition of growth, photometric)
Experimental: Example B3: Glomerella lagenarium (Colletotrichum lagenarium)/Liquid Culture (Anthracnose) Conidia of the fungus from cryogenic storage are directly mixed into nutrient broth (PDB potato dextrose broth). After placing a (DMSO) solution of test compound into a microtiter plate (96-well format), the nutrient broth containing the fungal spores is added. The test plates are incubated at 24° C. and the inhibition of growth is measured photometrically 3-4 days after application. […] […]-191.

[4] = tested on: Mycosphaerella graminicola (Septoria tritici); assay: Mycosphaerella graminicola (Septoria tritici) / liquid culture (Septoria blotch); format: cell-based; settings: Zymoseptoria tritici, PDB potato dextrose broth, 24° C., 4-5 days after application, read-out: control of Mycosphaerella graminicola (inhibition of growth, photometric)
Experimental: Example B15: Mycosphaerella graminicola (Septoria tritici)/Liquid Culture (Septoria Blotch) Conidia of the fungus from cryogenic storage are directly mixed into nutrient broth (PDB potato dextrose broth). After placing a (DMSO) solution of test compound into a microtiter plate (96-well format), the nutrient broth containing the fungal spores is added. The test plates are incubated at 24° C. and the inhibition of growth is determined photometrically 4-5 days after application. […] […]-191.

[5] = tested on: Blumeria graminis f. sp. tritici (Erysiphe graminis f. sp. tritici); assay: Blumeria graminis f. sp. tritici / wheat / leaf disc preventative (powdery mildew on wheat); format: in vivo; settings: foliar, wheat leaf segments cv. Kanzler, inoculated 1 day after application, assessed 6-8 days after application, read-out: control of Blumeria graminis f. sp. tritici (percent disease control compared to untreated)
Excerpt: Example B4: Blumeria graminis f. sp. tritici (Erysiphe graminis f. sp. tritici)/Wheat/Leaf Disc Preventative (Powdery Mildew on Wheat) Wheat leaf segments cv. Kanzler are placed on agar in a multiwell plate (24-well format) and sprayed with the formulated test compound diluted in water. The leaf disks are inoculated by shaking powdery mildew infected plants above the test plates 1 day after application. […] […]-192.

Row | SMILES | pest or weed control at 200 ppm [1] | inhibition at 20 ppm [2] | inhibition at 20 ppm [3] | inhibition at 20 ppm [4] | pest or weed control at 200 ppm [5]
1 | COc1ccc(Nc2cc(F)c(Cl)c(F)c2)nc1C(=O)NC(C)(C)C [Compound P-153, N-tert-butyl-6-(4-chloro-3,5-difluoro-anilino)-3-methoxy-pyridine-2-carboxamide] | ≥ 80% | ≥ 80% | ≥ 80% | ≥ 80% | ≥ 80%
2 | COc1ccc(Nc2cc(F)cc(F)c2)nc1C(=O)NC1(C#N)CCC1 [Compound P-129, N-(1-cyanocyclobutyl)-6-(3,5-difluoroanilino)-3-methoxy-pyridine-2-carboxamide] | ≥ 80% |  | ≥ 80% | ≥ 80% | 
3 | COc1ccc(Nc2cc(F)nc(F)c2)nc1C(=O)NCC#CC(C)(C)C [Compound P-35, 6-[(2,6-difluoro-4-pyridyl)amino]-N-(4,4-dimethylpent-2-ynyl)-3-methoxy-pyridine-2-carboxamide] | ≥ 80% |  |  | ≥ 80% | 
4 | COc1ccc(Nc2cc(F)nc(F)c2)nc1C(=O)NC1(Cc2ccc(Cl)cc2)CC1 [Compound P-90, N-[1-[(4-chlorophenyl)methyl]cyclopropyl]-6-[(2,6-difluoro-4-pyridyl)amino]-3-methoxy-pyridine-2-carboxamide] | ≥ 80% |  | ≥ 80% |  | 
5 | CC(C)(C)CNC(=O)c1cccc(Nc2cc(F)cc(F)c2)n1 [Compound P-111, 6-(3,5-difluoroanilino)-N-(2,2-dimethylpropyl)pyridine-2-carboxamide] | ≥ 80% | ≥ 80% | ≥ 80% | ≥ 80% | 
6 | COc1ccc(Nc2cnsc2)nc1C(=O)NC1CCC12CCCC2 (centres unmarked) [Compound P-33, 6-(isothiazol-4-ylamino)-3-methoxy-N-spiro[3.4]octan-3-yl-pyridine-2-carboxamide] | ≥ 80% | ≥ 80% | ≥ 80% | ≥ 80% | 
7 | COc1ccc(Nc2ccc(Cl)c(F)c2)nc1C(=O)NCC(C)(C)C [Compound P-144, 6-(4-chloro-3-fluoro-anilino)-N-(2,2-dimethylpropyl)-3-methoxy-pyridine-2-carboxamide] | ≥ 80% | ≥ 80% | ≥ 80% | ≥ 80% | 
8 | COc1ccc(Nc2ccc(C#N)c(F)c2)nc1C(=O)NC(C)(C)C [Compound P-164, N-tert-butyl-6-(4-cyano-3-fluoro-anilino)-3-methoxy-pyridine-2-carboxamide] | ≥ 80% |  |  |  | ≥ 80%
9 | COc1ccc(N(C#N)c2cc(F)cc(F)c2)nc1C(=O)NC1CCC1(C)C (centres unmarked) [Compound P-20, 6-(N-cyano-3,5-difluoro-anilino)-N-(2,2-dimethylcyclobutyl)-3-methoxy-pyridine-2-carboxamide] | ≥ 80% |  | ≥ 80% | ≥ 80% | ≥ 80%
10 | COc1ccc(Nc2cc(F)cc(F)c2)nc1C(=O)NC1(C#N)CSC1 [Compound P-121, N-(3-cyanothietan-3-yl)-6-(3,5-difluoroanilino)-3-methoxy-pyridine-2-carboxamide] |  | ≥ 80% | ≥ 80% | ≥ 80% | ≥ 80%
11 | COc1ccc(Nc2cc(F)nc(F)c2)nc1C(=O)NC1(C#N)CCC1 [Compound P-126, N-(1-cyanocyclobutyl)-6-[(2,6-difluoro-4-pyridyl)amino]-3-methoxy-pyridine-2-carboxamide] | ≥ 80% |  |  |  | 
12 | COc1ccc(Nc2cc(F)cc(F)c2)nc1C(=O)NC1(C)COC1 [Compound P-128, 6-(3,5-difluoroanilino)-3-methoxy-N-(3-methyloxetan-3-yl)pyridine-2-carboxamide] | ≥ 80% |  | ≥ 80% | ≥ 80% | ≥ 80%
13 | COc1ccc(Nc2cncc(F)c2)nc1C(=O)NC1CCC1(C)C (centres unmarked) [Compound P-104, N-(2,2-dimethylcyclobutyl)-6-[(5-fluoro-3-pyridyl)amino]-3-methoxy-pyridine-2-carboxamide] | ≥ 80% | ≥ 80% | ≥ 80% | ≥ 80% | ≥ 80%
14 | COc1ccc(Nc2ccc3c(c2)OCO3)nc1C(=O)NC(C)(C)C [Compound P-159, 6-(1,3-benzodioxo1-5-ylamino)-N-tert-butyl-3-methoxy-pyridine-2-carboxamide] | ≥ 80% |  |  |  | 
15 | COc1ccc(Nc2cc(F)cc(F)c2)nc1C(=O)NC1CC2CCOC21 (centres unmarked) [Compound P-59, 6-(3,5-difluoroanilino)-3-methoxy-N-(2-oxabicyclo[3.2.0]heptan-7-yl)pyridine-2-carboxamide] |  |  | ≥ 80% | ≥ 80% | ≥ 80%
16 | COc1ccc(Nc2cc(F)cc(F)c2)nc1C(=O)NC(C)c1ncc(C)o1 (centres unmarked) [Compound P-71, 6-(3,5-difluoroanilino)-3-methoxy-N-[1-(5-methyloxazol-2-yl)ethyl]pyridine-2-carboxamide] | ≥ 80% |  | ≥ 80% | ≥ 80% | 
17 | COc1ccc(Nc2cc(F)cc(F)c2)nc1C(=O)NC(C)C1CCOCC1 (centres unmarked) [Compound P-61, 6-(3,5-difluoroanilino)-3-methoxy-N-(1-tetrahydropyran-4-ylethyl)pyridine-2-carboxamide] | ≥ 80% |  | ≥ 80% |  | ≥ 80%
18 | COc1ccc(Nc2cc(F)nc(F)c2)nc1C(=O)NC1(c2ccc(F)cc2)CC1 [Compound P-89, 6-[(2,6-difluoro-4-pyridyl)amino]-N-[1-(4-fluorophenyl)cyclopropyl]-3-methoxy-pyridine-2-carboxamide] | ≥ 80% |  |  |  | 
19 | COc1ccc(Nc2cc(F)nc(F)c2)nc1C(=O)NCC(C)c1ccccc1 (centres unmarked) [Compound P-32, 6-[(2,6-difluoro-4-pyridyl)amino]-3-methoxy-N-(2-phenylpropyl)pyridine-2-carboxamide] | ≥ 80% |  |  | ≥ 80% | 
20 | CCOc1ccc(Nc2cc(F)nc(F)c2)nc1C(=O)NC(C)(C)C [Compound P-95, N-tert-butyl-6-[(2,6-difluoro-4-pyridyl)amino]-3-ethoxy-pyridine-2-carboxamide] | ≥ 80% | ≥ 80% | ≥ 80% |  | ≥ 80%
21 | COc1ccc(Nc2cc(F)cc(F)c2)nc1C(=O)NCc1cnn(C)n1 [Compound P-69, 6-(3,5-difluoroanilino)-3-methoxy-N-[(2-methyltriazol-4-yl)methyl]pyridine-2-carboxamide] | ≥ 80% |  |  |  | 
22 | COc1ccc(Nc2cc(F)nc(F)c2)nc1C(=O)NCC1(C)CCOC2(CCC2)C1 (centres unmarked) [Compound P-52, 6-[(2,6-difluoro-4-pyridyl)amino]-3-methoxy-N-[(8-methyl-5-oxaspiro[3.5]nonan-8-yl)methyl]pyridine-2-carboxamide] | ≥ 80% |  | ≥ 80% |  | ≥ 80%
23 | COc1ccc(Nc2cncc(F)c2)nc1C(=O)NC(C)(C)C [Compound P-103, N-tert-butyl-6-[(5-fluoro-3-pyridyl)amino]-3-methoxy-pyridine-2-carboxamide] | ≥ 80% |  |  |  | ≥ 80%
24 | COc1ccc(Nc2cc(F)nc(F)c2)nc1C(=O)NCC1(C(F)(F)F)CC1 [Compound P-49, 6-[(2,6-difluoro-4-pyridyl)amino]-3-methoxy-N-[[1-(trifluoromethyl)cyclopropyl]methyl]pyridine-2-carboxamide] | ≥ 80% |  |  |  | 
25 | COc1ccc(Nc2cc(F)nc(F)c2)nc1C(=O)NC1COC(C2CC2)C1 (centres unmarked) [Compound P-50, N-(5-cyclopropyltetrahydrofuran-3-yl)-6-[(2,6-difluoro-4-pyridyl)amino]-3-methoxy-pyridine-2-carboxamide] |  |  |  |  | ≥ 80%
26 | COc1ccc(N(C(C)=O)c2cc(F)nc(F)c2)nc1C(=O)NC1CCC1(C)C (centres unmarked) [Compound P-192, 6-[acetyl-(2,6-difluoro-4-pyridyl)amino]-N-(2,2-dimethylcyclobutyl)-3-methoxy-pyridine-2-carboxamide] | ≥ 80% |  |  |  | ≥ 80%
